Measurements as given in patent publication US8563514B2, “Peptides and pharmaceutical compositions for treating connective tissue” (Metamorefix, priority 2007, dated 2013).
Entries after “also recorded” stand apart in the source; their conditions may differ.

Tests used:
[1] = test system: human foreskin fibrobalsts (FF1); experiment: Cell attachment assay in monolayers (peptide-coated Sepharose beads), FF1; format: cell-based; settings: for activity in comparison with the positive control PreC-gamma: FIG. 3b, cell type not stated; for time to saturated attachment: Conclusions b109, concentration and cell type not stated; for Nomarsky optics microscopy of peptide coated beads attached to FF1 (observation): 3 days to 3 weeks of incubation; for cell binding activity at the lower dose (words): 6 mg peptide/ml compared with 12 mg/ml
Experimental: (§1) 100 mg of dried CNBr-Sepharose Beads (yields 350 μl of swollen Sepharose Beads—gel) was introduced into a disposable polystyrene mini-column (FIG. 1), appropriate for the preparation of a 0.5-2 ml gel filtration column (Pierce, Prod #29920). The lower part of the columns is blocked by a thick glass filter and a stopper.
(§2) 3-4 ml total volume of HCl solution (1 mM) was added to the column, and the liquid was forced to flow under vacuum pressure through the gel. This process was repeated 5 times. The final aliquot of HCl was aspirated until cracks appeared in the gel cake. 2-3 ml aliquots of coupling buffer were immediately added to the washed beads and aspirated. This step was repeated 4-5 times. The high pH hydrolyzes and opens the active groups.
(§3) A peptide solution in coupling buffer prepared as above was immediately added to the activated SEPHAROSE BEADS Sepharose beads were used to fixate the peptides for all in-vitro assays in the column to a final binding of 6 mg peptide per ml SEPHAROSE BEADS gel. The column was closed and shaken overnight at 4° C. very gently to avoid mechanical breakage of SEPHAROSE BEADS. The bottom cap of the column was removed and the solution of ligand/buffer was collected as the Sepharose Beads settled on the filter. The OD280 of the collected buffer was checked to determine the concentration of uncoupled peptide. The gel was washed/aspirated with 5 volumes (˜2 ml) of coupling buffer and gently mixed. Any remaining active groups on the gel were blocked with blocking buffer for 2 hours at room temperature or overnight at 4° C. The Sepharose Beads gel with peptides was then washed by 2 cycles each of 5 gel volumes of: • a. 0.1 M Acetate buffer • b. Coupling buffer • c. Storing buffer: azide-coupling buffer: coupling buffer containing 0.1% NaN3 (final concentration)
(§4) The tested peptides (Table 1) were coupled to Sepharose Beads at two concentrations: 6 and 12 mg/ml Sepharose Beads. Sepharose Beads that underwent the coupling procedure without peptide addition (“naked Sepharose Beads”) served as a negative control (referred to herein as “Sepharose Beads—blank”). A cell binding assay was performed with 2 normal cell types: bovine aortal endothelial cells (BAEC) and human foreskin fibrobalsts (FF1). Sepharose Beads were added to 12 well culture plates with sub-confluent monolayer of the cultured cells (100-300 beads were added to each well). The fraction of Sepharose Beads attached to the monolayer was monitored at different times.

BAEC = experiment: Toxicity assay for the peptides (MTS cell survival), BAEC; format: cell-based, bovine
Experimental: (§5) A toxicity assay was done to determine the toxicity of the peptides tested to either one of the cell lines used. 15×10^3 cells (FF1 or BAEC) were seeded in 96 well plastic plates. After an overnight incubation, increasing concentrations of peptides in the range of 0.1-300 μg/ml were added to the wells. Cell survival was checked by the MTS assay after 2 and 5 days and normalized to the cell number of the controls (no peptide).

FF1 = experiment: Toxicity assay for the peptides (MTS cell survival), FF1; format: cell-based, human
Experimental: as §5

FF1 in suspension = experiment: Cell attachment assay in cell suspensions (MTS assay); format: cell-based, human; settings: followed over days
Text: Attachment of FF1 in suspension to peptides bound to sepharose beads was followed using the MTS assay. The MTS assay uses tetrazolium, which is taken up by viable cells and converted into formazan, which has a light absorption peak at 492 nm. The light absorbance at 492 (OD492) is directly proportional to the number of the living cells attached to the beads. Calibration curves were used to transform the OD492 readings into cell number, […]

[2] = test system: bovine aortal endothelial cells (BAEC); experiment: Cell attachment assay in monolayers (peptide-coated Sepharose beads), BAEC; format: cell-based; settings: for cell binding activity at the lower dose (words): BAEC monolayer, 6 mg peptide/ml compared with 12 mg/ml; for Nomarsky optics microscopy of peptide coated beads attached to BAEC (observation): 3 weeks of incubation; for overall activity at longer incubation times: microscopy, statement follows FF1 and BAEC paragraphs
Experimental: as §1, §2, §3, §4

[3] = FF1, FIG. 3a, peptide concentration not given
[4] = FF1 monolayer, 6 mg peptide/ml Sepharose beads
[5] = high concentrations (>100 μg/ml), 5 days
[6] = very high concentrations (>100 μg/ml), prolonged exposure (5 days)

## M-Fic-K: peptide having the sequence GGWTVFQRRMDGSVDFYRK (SEQ ID NO: 5) (listed as Homo sapiens)
[1]; 6 mg peptide/ml
  activity in comparison with the positive control PreC-gamma: dramatic change in activity

## C-M-Fic2: peptide having the sequence KGYKYSYKGGWTVFQRRMDGSVDFYR (SEQ ID NO: 8) (listed as Homo sapiens)
[1]; [3]
  cell binding (extent reached): 100%
  kinetic profile of cell binding: good kinetic profile of cell binding (fast attachment)

## C-Fic-a-K: peptide having the sequence KGYKYSYKVSEMKVRPAK (SEQ ID NO: 4) (listed as Homo sapiens)
[1]; [4]
  cell binding (extent reached): 100%

## C-M-Fic: peptide having the sequence KGYNYSYKVSEMKFQRRVDGSVDFYRK (SEQ ID NO: 3) (listed as Homo sapiens)
BAEC; [5]
  cell survival, normalized to controls: about 50%
BAEC; [6]
  toxicity: some minor toxicity
[1]
  time to saturated attachment: 72 h
[1]; FF1
  Nomarsky optics microscopy of peptide coated beads attached to FF1 (observation): aggregates of cells and beads formed
[1]; FF1 monolayer, 6 mg peptide/ml
  time to reach 100% / saturated cell binding: 96 h
[1]; [4]
  cell binding (extent reached): 100%
[1]; FF1 monolayer
  cell binding activity at the lower dose (words): strongly affected by the decrease
[1]; FF1 monolayer, listed as C-M-fic
  cell binding activity at the lower dose (words): strongly affected by the lowerdose
[1]; FF1 monolayer, 6 mg peptide/ml, listed as C-M-fic
  time to reach 100% / saturated cell binding: ≤ 96 h
[1]; FF1 monolayer, 12 mg peptide/ml
  rate of cell binding compared to the lower concentration: slightly faster cell binding
[1]; FF1 monolayer, higher dose (12 mg/ml)
  time to reach 100% cell binding: 20 h
FF1; [5]
  cell survival, normalized to controls: about 50%
FF1; [6]
  toxicity: some minor toxicity
FF1 in suspension; listed as C-M-fic
  attachment of FF1 cells in suspension to coated sepharose beads over time (words): an increase in cell number is detected after the first day
FF1 in suspension; listed as CM-fic
  attachment of FF1 cells in suspension to coated sepharose beads over time (words): stable for at least three days
[2]
  cell binding activity at the lower dose (words): slower rate at the lower concentration
  overall activity at longer incubation times: also active
[2]; BAEC
  Nomarsky optics microscopy of peptide coated beads attached to BAEC (observation): formation of small tubes

## M-Fic: peptide having the sequence GGWTVFQRRVDGSVDFYRK (SEQ ID NO: 2) (listed as Homo sapiens)
[1]
  time to saturated attachment: 72 h
[1]; FF1
  Nomarsky optics microscopy of peptide coated beads attached to FF1 (observation): aggregates of cells and beads formed
[1]; FF1 monolayer, 6 mg peptide/ml
  time to reach 100% / saturated cell binding: ≤ 24 h
[1]; FF1 monolayer
  cell binding activity at the lower dose (words): retains its activity
[1]; FF1 monolayer, listed as M-fic
  cell binding activity at the lower dose (words): retain most of its activity
[1]; 6 mg peptide/ml
  activity in comparison with the positive control PreC-gamma: initially inferior to the positive control
[2]
  cell binding activity at the lower dose (words): slight decrease
  overall activity at longer incubation times: highest activity
[2]; BAEC
  Nomarsky optics microscopy of peptide coated beads attached to BAEC (observation): formation of small tubes

## C-M-Fic2K: peptide having the sequence KGYKYSYKGGWTVFQRRMDGSVDFYRK (SEQ ID NO: 6) (listed as Homo sapiens)
[1]; [3]
  cell binding (extent reached): 100%
  kinetic profile of cell binding: good kinetic profile of cell binding (fast attachment)

## C-Fic: peptide having the sequence KGYNYSYKSEMKVRPA (SEQ ID NO: 1); subsequence of human ficolin (listed as Homo sapiens)
[1]; FF1, 6 mg peptide/ml, after 96 hours of incubation
  extent of cell binding: about 30%
[1]; FF1 monolayer
  cell binding activity at the lower dose (words): no reactivity
[1]; FF1 monolayer, listed as C-fic
  cell binding activity at the lower dose (words): did not attach; also recorded: looses its activity; also recorded: inactive
[1]; FF1 monolayer, 12 mg peptide/ml, up to 150 hours
  cell binding (extent reached): 100%
[2]
  cell binding activity at the lower dose (words): completely looses reactivity
[2]; listed as C-fic
  cell binding activity at the lower dose (words): did not attach; also recorded: some activity
[2]; BAEC, 6 mg peptide/ml, after 96 hours of incubation
  extent of cell binding: about 30%

## C-M-Fic-a-K: peptide having the sequence KGYKYSYKVSEMKFQRRMDGSVDFYRK (SEQ ID NO: 7) (listed as Homo sapiens)
[1]; FF1 monolayer, 6 mg peptide/ml
  rate / kinetics of cell binding compared with positive control PreC: accelerated the kinetics of cell binding

## PreC: positive control peptide KTRWYSMKKTTMKIIPFNR (SEQ ID NO: 10) (listed as Homo sapiens) [reference compound]
[1]; [4]
  cell binding (extent reached): 100%
